Here are results for one molecule from BindingDB's records for PubMed 34752953 (Zhengzhou University, 2022).

The experiment has as its target Indoleamine 2,3-dioxygenase 1 (Homo sapiens, UniProt P14902). In words: Inhibition of IDO1 (unknown origin).

Chain of Indoleamine 2,3-dioxygenase 1 (P14902 whole entry): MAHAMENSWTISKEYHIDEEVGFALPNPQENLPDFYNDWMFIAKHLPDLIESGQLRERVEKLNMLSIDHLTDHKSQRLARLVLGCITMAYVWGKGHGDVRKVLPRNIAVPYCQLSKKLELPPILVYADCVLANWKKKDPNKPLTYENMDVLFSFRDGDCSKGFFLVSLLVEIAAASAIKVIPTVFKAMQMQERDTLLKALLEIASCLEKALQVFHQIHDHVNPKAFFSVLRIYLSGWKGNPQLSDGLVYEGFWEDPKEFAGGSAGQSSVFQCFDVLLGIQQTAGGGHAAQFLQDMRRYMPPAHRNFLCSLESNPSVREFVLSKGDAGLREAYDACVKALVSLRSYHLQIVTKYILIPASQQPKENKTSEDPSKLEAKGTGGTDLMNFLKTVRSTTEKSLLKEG

The IC50 is the concentration needed to halve the response being measured. Lower therefore signals greater potency. For the molecule `O[C@@H](C[C@H]1c2sccc2-c2cncn21)C1CCC(F)(F)CC1`, the IC50 worked out at 11 nM.
